Test results published in patent publication US20230295234A1, “ANTIMICROBIAL PEPTIDOMIMETICS” (SPEXIS AG, priority 2020, published 2023).
Bridge positions count the residues as written; N and C are the ends. Square brackets hold non-standard residues; d marks the D form. Peptide text beside a SMILES is read from it. Gly(N-2-aminoethyl) = NCCNCC(=O)O; Hyp = O=C(O)[C@@H]1C[C@@H](O)CN1; Pen = CC(C)(S)[C@H](N)C(=O)O; dDab = NCC[C@@H](N)C(=O)O; Dab = NCC[C@H](N)C(=O)O

Legend:
[1] = system: human red blood cells (hRBC); test: Hemolysis of human red blood cells; type: cell-based; conditions: red cells of human, 1 h
How it was run: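 Percent hemolysis is OD540 of peptide-treated supernatant relative to water-lysed cells. Each peptide was tested at 200 μg/mL against 20% (v/v) washed human erythrocytes. Incubation was 1 h at 37 °C, 300 rpm.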

[2] = system: Escherichia coli MCR-1 Af 45; conditions: MCR-1 Af 45
How it was run: (§1)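 First, bacterial colonies are suspended in saline and adjusted to 0.5 McFarland. Next, the suspension is diluted into cation-adjusted Mueller-Hinton II broth (approx. 5×10^5 CFU/mL). Finally, it is added to two-fold serially diluted peptide, with polysorbate 80 at 0.002% final.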

[3] = system: Klebsiella pneumoniae SSI3010; conditions: SSI3010
How it was run: as §1

[4] = system: Escherichia coli ATCC 25922; conditions: ATCC 25922
How it was run: as §1

CC[C@H](C)[C@H](NC(=O)[C@@H]1C[C@@H](O)CN1C(=O)[C@@H](NC(=O)[C@@H]1C[C@@H](O)CN1C(=O)[C@H](CCCCN)NC(=O)[C@@H](N)CCCCN)C(C)C)C(=O)N[C@H](C(=O)N[C@@H](Cc1ccc(O)cc1)C(=O)N[C@@H]1C(=O)N[C@@H](CC(N)=O)C(=O)N[C@@H](CCCNC(=N)N)C(=O)N[C@@H](CCN)C(=O)N[C@@H]([C@@H](C)O)C(=O)N[C@H](CCN)C(=O)N[C@@H](CCCCN)C(=O)N[C@H](C(=O)N[C@@H](CO)C(=O)N[C@@H](CCCNC(=N)N)C(=O)N[C@@H](Cc2ccc(O)cc2)C(=O)O)CSSC1(C)C)[C@@H](C)O [Example 123, Lys-Lys-Hyp-Val-Hyp-Ile-Thr-Tyr-Pen-Asn-Arg-Dab-Thr-^DDab-Lys-Cys-Ser-Arg-Tyr] (HELM PEPTIDE1{K.K.[Hyp].V.[Hyp].I.T.Y.[Pen].N.R.[Dab].T.[NCC[C@@H](N[*:1])C(=O)[*:2]].K.C.S.R.Y}$PEPTIDE1,PEPTIDE1,9:R3-16:R3$$$V2.0)
Hemolysis at 0.2 g/L [1]: 0%
Escherichia coli MCR-1 Af 45 MIC [2]: 0.0625 µg/mL
Klebsiella pneumoniae SSI3010 MIC [3]: 0.25 µg/mL
Escherichia coli ATCC 25922 MIC [4]: 0.125 µg/mL

CC[C@H](C)[C@H](NC(=O)[C@@H]1C[C@@H](O)CN1C(=O)[C@@H](NC(=O)[C@@H]1C[C@@H](O)CN1C(=O)[C@H](CCCCN)NC(=O)[C@@H](N)CCCCN)C(C)C)C(=O)N[C@H](C(=O)N[C@@H](Cc1ccc(O)cc1)C(=O)N[C@@H]1C(=O)N[C@@H](CC(N)=O)C(=O)N[C@@H](CCCNC(=N)N)C(=O)N[C@@H](CCN)C(=O)N[C@@H]([C@@H](C)O)C(=O)N[C@H](CCN)C(=O)N[C@@H](CCCCN)C(=O)N[C@H](C(=O)N[C@@H](CCN)C(=O)N[C@@H](CCCN)C(=O)N[C@@H](Cc2ccc(O)cc2)C(=O)O)CSSC1(C)C)[C@@H](C)O [Example 124, Lys-Lys-Hyp-Val-Hyp-Ile-Thr-Tyr-Pen-Asn-Arg-Dab-Thr-^DDab-Lys-Cys-Dab-Orn-Tyr] (HELM PEPTIDE1{K.K.[Hyp].V.[Hyp].I.T.Y.[Pen].N.R.[Dab].T.[NCC[C@@H](N[*:1])C(=O)[*:2]].K.C.[Dab].[Orn].Y}$PEPTIDE1,PEPTIDE1,9:R3-16:R3$$$V2.0; N-terminus and C-terminus assumed)
Hemolysis at 0.2 g/L [1]: 0%
Escherichia coli MCR-1 Af 45 MIC [2]: 0.0625 µg/mL
Klebsiella pneumoniae SSI3010 MIC [3]: 0.25 µg/mL
Escherichia coli ATCC 25922 MIC [4]: 0.125 µg/mL

CC[C@H](C)[C@H](NC(=O)[C@@H]1C[C@@H](N)CN1C(=O)[C@@H](NC(=O)[C@@H]1C[C@@H](O)CN1C(=O)[C@H](CCCCN)NC(=O)[C@@H](N)CCCCN)C(C)C)C(=O)N[C@H](C(=O)N[C@@H](Cc1ccc(O)cc1)C(=O)N[C@@H]1C(=O)N[C@@H](CC(N)=O)C(=O)N[C@@H](CCCNC(=N)N)C(=O)N[C@@H](CCN)C(=O)N[C@@H]([C@@H](C)O)C(=O)N[C@H](CCN)C(=O)N[C@@H](CCCCN)C(=O)N[C@H](C(=O)N[C@@H](CCN)C(=O)N[C@@H](CCCNC(=N)N)C(=O)N[C@@H](Cc2ccc(O)cc2)C(=O)O)CSSC1(C)C)[C@@H](C)O [Example 125, Lys-Lys-Hyp-Val-Pro((4R)NH2)-Ile-Thr-Tyr-Pen-Asn-Arg-Dab-Thr-^DDab-Lys-Cys-Dab-Arg-Tyr] (HELM PEPTIDE1{K.K.[Hyp].V.[N[C@@H]1C[C@@H](C(=O)[*:2])N([*:1])C1].I.T.Y.[Pen].N.R.[Dab].T.[NCC[C@@H](N[*:1])C(=O)[*:2]].K.C.[Dab].R.Y}$PEPTIDE1,PEPTIDE1,9:R3-16:R3$$$V2.0)
Hemolysis at 0.2 g/L [1]: 0%
Escherichia coli MCR-1 Af 45 MIC [2]: 0.0625 µg/mL
Klebsiella pneumoniae SSI3010 MIC [3]: 0.0625 µg/mL
Escherichia coli ATCC 25922 MIC [4]: ≤0.03125 µg/mL

CC[C@H](C)[C@H](NC(=O)CN(CCN)C(=O)[C@@H](NC(=O)[C@@H]1C[C@@H](O)CN1C(=O)[C@H](CCCCN)NC(=O)[C@@H](N)CCCCN)C(C)C)C(=O)N[C@H](C(=O)N[C@@H](Cc1ccc(O)cc1)C(=O)N[C@@H]1C(=O)N[C@@H](CC(N)=O)C(=O)N[C@@H](CCCNC(=N)N)C(=O)N[C@@H](CCN)C(=O)N[C@@H]([C@@H](C)O)C(=O)N[C@H](CCN)C(=O)N[C@@H](CCCCN)C(=O)N[C@H](C(=O)N[C@@H](CCN)C(=O)N[C@@H](CCCNC(=N)N)C(=O)N[C@@H](Cc2ccc(O)cc2)C(=O)O)CSSC1(C)C)[C@@H](C)O [Example 126, Lys-Lys-Hyp-Val-Ndab-Ile-Thr-Tyr-Pen-Asn-Arg-Dab-Thr-^DDab-Lys-Cys-Dab-Arg-Tyr] (HELM PEPTIDE1{K.K.[Hyp].V.[NCCN(CC(=O)[*:2])[*:1]].I.T.Y.[Pen].N.R.[Dab].T.[NCC[C@@H](N[*:1])C(=O)[*:2]].K.C.[Dab].R.Y}$PEPTIDE1,PEPTIDE1,9:R3-16:R3$$$V2.0)
Hemolysis at 0.2 g/L [1]: 0%
Escherichia coli MCR-1 Af 45 MIC [2]: ≤0.03125 µg/mL
Klebsiella pneumoniae SSI3010 MIC [3]: 0.0625 µg/mL
Escherichia coli ATCC 25922 MIC [4]: ≤0.03125 µg/mL

CC[C@H](C)[C@H](NC(=O)[C@@H]1C[C@@H](O)CN1C(=O)[C@@H](NC(=O)[C@@H]1C[C@@H](O)CN1C(=O)[C@H](CCCCN)NC(=O)[C@@H](N)CCCCN)C(C)C)C(=O)N[C@H](C(=O)N[C@@H](Cc1ccc(O)cc1)C(=O)N[C@@H]1C(=O)N[C@@H](CC(N)=O)C(=O)N[C@@H](CCCNC(=N)N)C(=O)N[C@@H](CCN)C(=O)N[C@@H]([C@@H](C)O)C(=O)N[C@H](CCN)C(=O)N[C@@H](CCCCN)C(=O)N[C@H](C(=O)N[C@@H](Cc2ccc(O)cc2)C(=O)N[C@@H](CCCNC(=N)N)C(=O)N[C@@H](Cc2ccc(O)cc2)C(=O)O)CSSC1(C)C)[C@@H](C)O [Example 128, Lys-Lys-Hyp-Val-Hyp-Ile-Thr-Tyr-Pen-Asn-Arg-Dab-Thr-^DDab-Lys-Cys-Tyr-Arg-Tyr] (HELM PEPTIDE1{K.K.[Hyp].V.[Hyp].I.T.Y.[Pen].N.R.[Dab].T.[NCC[C@@H](N[*:1])C(=O)[*:2]].K.C.Y.R.Y}$PEPTIDE1,PEPTIDE1,9:R3-16:R3$$$V2.0; N-terminus and C-terminus assumed)
Hemolysis at 0.2 g/L [1]: 0%
Escherichia coli MCR-1 Af 45 MIC [2]: 0.0625 µg/mL
Klebsiella pneumoniae SSI3010 MIC [3]: 0.125 µg/mL
Escherichia coli ATCC 25922 MIC [4]: 0.125 µg/mL

CC[C@H](C)[C@H](NC(=O)CN(CCN)C(=O)[C@@H](NC(=O)[C@@H]1C[C@@H](O)CN1C(=O)[C@H](CCCCN)NC(=O)[C@@H](N)CCCCN)C(C)C)C(=O)N[C@H](C(=O)N[C@@H](Cc1ccc(O)cc1)C(=O)N[C@@H]1C(=O)N[C@@H](CC(N)=O)C(=O)N[C@@H](CCCNC(=N)N)C(=O)N[C@@H](CCN)C(=O)N[C@@H]([C@@H](C)O)C(=O)N[C@H](CCN)C(=O)N[C@@H](CCCCN)C(=O)N[C@H](C(=O)N[C@@H](Cc2ccc(O)cc2)C(=O)N[C@@H](CCCNC(=N)N)C(=O)N[C@@H](Cc2ccc(O)cc2)C(=O)O)CSSC1(C)C)[C@@H](C)O [Example 129, Lys-Lys-Hyp-Val-Ndab-Ile-Thr-Tyr-Pen-Asn-Arg-Dab-Thr-^DDab-Lys-Cys-Tyr-Arg-Tyr] (HELM PEPTIDE1{K.K.[Hyp].V.[NCCN(CC(=O)[*:2])[*:1]].I.T.Y.[Pen].N.R.[Dab].T.[NCC[C@@H](N[*:1])C(=O)[*:2]].K.C.Y.R.Y}$PEPTIDE1,PEPTIDE1,9:R3-16:R3$$$V2.0)
Hemolysis at 0.2 g/L [1]: 0%
Escherichia coli MCR-1 Af 45 MIC [2]: 0.0625 µg/mL
Klebsiella pneumoniae SSI3010 MIC [3]: 0.125 µg/mL
Escherichia coli ATCC 25922 MIC [4]: 0.25 µg/mL

CC[C@H](C)[C@H](NC(=O)CN(CCN)C(=O)[C@@H](NC(=O)[C@@H]1C[C@@H](O)CN1C(=O)[C@H](CCCCN)NC(=O)CNCCN)C(C)C)C(=O)N[C@H](C(=O)N[C@@H](Cc1ccc(O)cc1)C(=O)N[C@@H]1C(=O)N[C@@H](CC(N)=O)C(=O)N[C@@H](CCCNC(=N)N)C(=O)N[C@@H](CCN)C(=O)N[C@@H]([C@@H](C)O)C(=O)N[C@H](CCN)C(=O)N[C@@H](CCCCN)C(=O)N[C@H](C(=O)N[C@@H](Cc2ccc(O)cc2)C(=O)N[C@@H](CCCNC(=N)N)C(=O)N[C@@H](Cc2ccc(O)cc2)C(=O)O)CSSC1(C)C)[C@@H](C)O [Example 130, Ndab-Lys-Hyp-Val-Ndab-Ile-Thr-Tyr-Pen-Asn-Arg-Dab-Thr-^DDab-Lys-Cys-Tyr-Arg-Tyr] (H-[Gly(N-2-aminoethyl)]K[Hyp]V[Gly(N-2-aminoethyl)]ITY[Pen]NR[Dab]T[dDab]KCYRY-OH; disulfide 9-16)
Hemolysis at 0.2 g/L [1]: 0%
Escherichia coli MCR-1 Af 45 MIC [2]: 0.125 µg/mL
Klebsiella pneumoniae SSI3010 MIC [3]: 0.25 µg/mL
Escherichia coli ATCC 25922 MIC [4]: 0.25 µg/mL

CC[C@H](C)[C@H](NC(=O)[C@@H](NC(=O)[C@@H]1CCCN1C(=O)[C@@H](NC(=O)[C@@H]1C[C@@H](N)CN1C(=O)[C@H](CCCCN)NC(=O)[C@@H](N)CCCCN)C(C)C)[C@@H](C)CC)C(=O)N[C@@H](Cc1ccc(O)cc1)C(=O)N[C@H]1CCNC(=O)CC[C@@H](C(=O)N[C@@H](CCN)C(=O)N[C@@H](CCCNC(=N)N)C(=O)N[C@@H](Cc2ccc(O)cc2)C(=O)O)NC(=O)[C@H](CCCCN)NC(=O)[C@@H](CCN)NC(=O)[C@H]([C@@H](C)O)NC(=O)[C@H](CCN)NC(=O)[C@H](CCCNC(=N)N)NC(=O)[C@H](CC(N)=O)NC1=O [Example 131, Lys-Lys-Pro((4R)NH2)-Val-Pro-Ile-Ile-Tyr-Dab-Asn-Arg-Dab-Thr-^DDab-Lys-Glu-Dab-Arg-Tyr] (HELM PEPTIDE1{K.K.[N[C@@H]1C[C@@H](C(=O)[*:2])N([*:1])C1].V.P.I.I.Y.[Dab].N.R.[Dab].T.[NCC[C@@H](N[*:1])C(=O)[*:2]].K.E.[Dab].R.Y}$PEPTIDE1,PEPTIDE1,9:R3-16:R3$$$V2.0)
Hemolysis at 0.2 g/L [1]: 0%
Escherichia coli MCR-1 Af 45 MIC [2]: 0.125 µg/mL
Klebsiella pneumoniae SSI3010 MIC [3]: 0.25 µg/mL
Escherichia coli ATCC 25922 MIC [4]: 0.125 µg/mL
